Results as given in the NIST ThermoML archive (doi:10.1016/j.tca.2007.07.015).

Assay: excess molar enthalpy (molar enthalpy of mixing); xn = mol fraction of the nth substance listed
Conditions: 973 K, Liquid, Calvet calorimetry

[Pb] [lead] + [Ag]
Conditions	excess molar enthalpy [kcal/mol]
101.3 kPa, x2 = 0.2	0.555

[Pb] [lead] + [Au]
101 kPa
Conditions	excess molar enthalpy [kcal/mol]
x2 = 0.0446	-0.0574
x2 = 0.0465	-0.0433
x2 = 0.0726	-0.0915
x2 = 0.0864	-0.111
x2 = 0.0922	-0.0825
x2 = 0.1272	-0.151
x2 = 0.1358	-0.127
x2 = 0.1368	-0.154
x2 = 0.1653	-0.174
x2 = 0.1768	-0.159
x2 = 0.1938	-0.189
x2 = 0.2	-0.212
x2 = 0.2003	-0.202
x2 = 0.2148	-0.187
x2 = 0.2333	-0.209
x2 = 0.2482	-0.212
x2 = 0.2506	-0.204
x2 = 0.2652	-0.228
x2 = 0.2841	-0.22
x2 = 0.2962	-0.24
x2 = 0.2966	-0.228
x2 = 0.3161	-0.222
x2 = 0.3226	-0.244
x2 = 0.3436	-0.235
x2 = 0.3455	-0.232
x2 = 0.3733	-0.235
x2 = 0.3862	-0.239
x2 = 0.4	-0.257
x2 = 0.402	-0.241
x2 = 0.4248	-0.241
x2 = 0.4294	-0.248
x2 = 0.4416	-0.249
